{
  "source": "patent US9551711B2",
  "about": "“Compositions and methods for detecting nitration of PKG-1α and methods of use thereof” (Augusta University Research Institute, Inc., priority 2013, dated 2017)",
  "molecular_target": "T1, PKG-1α (Homo sapiens, UniProt Q13976)",
  "T1 sequence (Q13976 2-671)": "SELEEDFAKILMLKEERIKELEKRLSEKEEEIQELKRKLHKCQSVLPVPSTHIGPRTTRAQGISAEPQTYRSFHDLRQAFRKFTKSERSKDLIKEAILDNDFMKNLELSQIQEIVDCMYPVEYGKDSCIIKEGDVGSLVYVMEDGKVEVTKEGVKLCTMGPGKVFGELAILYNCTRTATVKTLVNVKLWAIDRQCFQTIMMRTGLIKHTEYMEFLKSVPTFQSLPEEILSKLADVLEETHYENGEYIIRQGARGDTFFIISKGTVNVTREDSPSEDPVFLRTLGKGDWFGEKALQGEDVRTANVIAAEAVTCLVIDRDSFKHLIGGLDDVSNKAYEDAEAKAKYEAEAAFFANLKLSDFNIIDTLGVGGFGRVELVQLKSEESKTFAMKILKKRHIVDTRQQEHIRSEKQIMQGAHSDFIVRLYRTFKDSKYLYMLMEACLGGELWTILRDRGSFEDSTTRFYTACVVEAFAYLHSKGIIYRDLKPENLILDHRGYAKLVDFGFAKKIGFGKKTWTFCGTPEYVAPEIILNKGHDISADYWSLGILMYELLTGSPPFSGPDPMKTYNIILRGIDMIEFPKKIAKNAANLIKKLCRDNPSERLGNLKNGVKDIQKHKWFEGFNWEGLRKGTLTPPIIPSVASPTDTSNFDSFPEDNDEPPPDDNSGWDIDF",
  "test": "[3H]cGMP binding assay on immunopurified PKG-1α",
  "parameters": "an expression plasmid containing a full length WT-PKG-1α cDNA; made in house; host or cells: HEK-293T; the results paragraph b304 says PASMC",
  "settings": "WT-PKG-1α; SIN-1 treatment",
  "protocol": "HEK-293T cells were transiently transfected with either the WT-PKG-1α or the Y247FPKG-1α cDNA using Effectene transfection reagent (Qiagen), according to the manufacturer's instructions. Briefly, the cells were split the day before the transfection to low cell densities (25%) and were transfected 24 h later. After 48 h of transfection, the cells were incubated in DMEM serum free media containing 1% FBS and antibiotics for 4 h and then treated with or without SIN-1 (500 μM), for 30 min. This method produced an approximate 70% transfection efficiency of HEK-293T cells, as measured using green fluorescent protein vectors. […]\nThe batches of supernatant were pooled, and 2 μg of anti-PKG-1α antibody per mg of protein were added to the extract and rocked at 4° C. […] After 15 min of agitation at 4° C., the beads were pelleted by centrifugation, and the supernatant containing the PKG-1α protein was collected, quantified using Bradford reagent, and stored at −80° C.\nTo assay the binding of cGMP to WT- and Y247F-PKG-1α the enzymes were saturated with cGMP by incubating 50 μl aliquots of the diluted PKG constructs for 60 min at room temperature with 50 μl of [^3H]cGMP and 150 μl of cGMP-binding assay mixture (25 mM K2HPO4, 25 mM KH2PO4, 1 mM EDTA, pH 6.8, 2M NaCl, 200 μM 3-isobutyl-1-methylxanthine). […] The dissociation constant (Kd) values were determined using GraphPad Prism graphics. […]",
  "data": [
    {"substance": "3-morpholinosydnonimine N-ethylcarbamide [SIN-1]", "values": [
      {"measurement": "maximal [3H]cGMP binding", "result": "significantly attenuated"}
    ]}
  ]
}
